Experiment [1] concerns platelets. Put plainly: Morphology and cytoskeleton of Quin-2-loaded platelets, resting or activated (light and electron microscopy). It counts as cell-based, human. On the procedure:
(§1) Human blood from healthy volunteers, drawn into 0.1 vol of Aster-Jandl anticoagulant, was centrifuged at 110 g for 10 min. The platelet-rich plasma was gel-filtered through a Sepharose 2B column equilibrated and eluted with a solution containing 145 mM NaCl, 10 mM Hepes, 10 mM glucose, 0.5 mM Na2 HPO4, 5 mM KCl, 2 mM MgCl2, and 0.3% BSA, pH 7.4 (platelet buffer). 2 U/ml apyrase was added to the platelet suspension and the cells were left standing for 60 min. at 37° C. as previously reported (Hartwig, J., and M. DeSisto, 1991 J. Cell Biol. 112:407-425; Hartwig, J., et al. 1989 J. Cell Biol. 109:1571-1579). To maintain cytosolic calcium at or below its resting level during cell activation, cells were loaded with 30 uM Quin-2AM during minutes 30-60 of the rest period. The effect of Quin-2 was reversed by the addition of 1 mM CaCl2 to the bathing media before centrifugation of the Quin 2-loaded cells onto the coverslips or after the cells had been attached and formed filopodia on the coverslip. Glass-adherent, Quin-2 loaded cells were also treated with 1 mM CaCL2 and 20 nM of the ionophore A23187 for 15 seconds (s) and then detergent permeabilized. In some cases, platelets were used directly from platelet-rich plasma by diluting it 1:20 with platelet buffer containing, in addition, 0.1 mM EGTA and 2 U/ml apyrase. The diluted cells were incubated for 30 min. at 37° C. to insure a resting state.
Platelet suspensions were activated by the addition of 1 U/ml of thrombin (hereafter called thrombin-activated) for 15-30 seconds in studies of nucleation activity. Activation was terminated by permeabilizing the cells as detailed below. Glass activation was used for the morphological studies. Cells were glass-activated by centrifugation onto polylysine-coated glass coverslips at 250 g for 5 min. Coverslips were placed in the bottom of multiwell plates (24 or 96 wells), covered with 0.25 ml of platelet suspension, and centrifuged at 37° C. in a Sorvall HB-6000 centrifuge using multiwell carriers.
Light microscopy and electron microscopy of platelets and cytoskeletons were performed according to standard methods, see e.g., Hartwig, J., 1992, J. Cell Biol. 118(6):1421-1442. The localization of gelsolin in platelets was performed by gold labeling of cytoskeletons from resting and activated cells with antibodies to gelsolin. The affinity-purified goat anti-rabbit macrophage gelsolin IgG was described earlier (Hartwig, J., and M. DeSisto, 1991 J. Cell Biol. 112:407-425; Hartwig, J., and P. Shevlin, 1986 J. Cell Biol. 103:1007-1020).

Experiment [2] relates to platelets. Put plainly: Nucleation activity in lysates from Quin-2-loaded, thrombin-activated platelets. It counts as cell-based, human. On the procedure:
as §1, with “In some cases, platelets were used directly from platelet-rich plasma by diluting it 1:20 with platelet buffer containing, in addition, 0.1 mM EGTA and 2 U/ml apyrase. The diluted cells were incubated for 30 min. at 37° C. to insure a resting state.” left out
The effect of cell lysates on the rate and extent of pyrene-labeled rabbit skeletal muscle actin was determined as described previously (Hartwig, J., and P. Janmey, 1989 Biochim. Biophys. Acta. 1010:64-71). […] The relative contribution of nuclei with barbed or pointed ends in the cell lysates was determined by adding 2 uM cytochalasin B to the pyrene nucleation assay system. […] To determine if the measured stimulation of actin assembly and its decay with time was due to the growth of pyrene-actin addition onto cellular filaments subject to depolymerization in the diluted lysate, 0.1 uM phalloidin or phallacidin was added to the cell lysates during their preparation to stabilize the filaments. […] However, we also determined that the soluble phase from cells permeabilized with detergent in the presence of EGTA contained calcium dependent nucleation activity. […]

Where [3] appears, read: Quin-2-loaded platelets, glass activated.

The values below come from patent US5876676A, “Preservation of blood platelets” (priority 1996, dated 1999).

The structures appear in SMILES notation. Starred links: 1 amine or outer side, 2 acyl side, 3 side chain; linkers in the order of their positions; H or OH if unused. Positions of bridges follow the written chain, without caps; N, C: chain ends. Non-standard residues stand in square brackets, D forms with d. Residues, ends and D or L forms follow the SMILES beside them. Trp(2-yl) = O=C([C@H](Cc1c([*:3])[nH]c2ccccc12)N[*:1])[*:2]; Leu(4R-OH,5-OH) = C[C@](O)(CO)C[C@H](N)C(=O)O; cisHyp = O=C(O)[C@@H]1C[C@H](O)CN1

On to `CNc1ccc2oc(C[C@H]3O[C@@]4(CC[C@H]3C)O[C@H]([C@H](C)C(=O)c3ccc[nH]3)[C@H](C)C[C@H]4C)nc2c1C(=O)O` [A23187], for which the “Cytoskeletons of Quin-2-loaded, glass-activated cells after external calcium plus ionophore” value with platelets [1] (added external calcium (1 mM CaCl2) with 20 nM A23187, within seconds) is “completely disrupted”.

On to `COc1cc(N(CC(=O)OCOC(C)=O)CC(=O)OCOC(C)=O)c2nc(COc3cc(C)ccc3N(CC(=O)OCOC(C)=O)CC(=O)OCOC(C)=O)ccc2c1` [Quin-2AM, acetoxymethyl ester of quin-2], for which the “Effect on structure of resting cells and their cytoskeletons” value with platelets [1] (30 uM Quin-2AM loading, light microscope) is given as “no effect”. In addition, in the experiment with platelets [1] (quin-2AM prior to activation with thrombin), the “Swelling, actin filament severing and extension of lamellipodial networks associated with platelet activation” value is “prevented”.

As to `COc1cc(N(CC(=O)O)CC(=O)O)c2nc(COc3cc(C)ccc3N(CC(=O)O)CC(=O)O)ccc2c1` [Quin-2], the activity at 30 µM with platelets [2] (Homo sapiens, Platelet, Quin-2-loaded, thrombin-activated, assayed immediately, read-out: Nucleation activity relative to lysates from untreated and activated cells) was determined as 28%. The “Stability of nucleation activity in detergent lysates” value in the experiment with platelets [2] (Quin-2-loaded cells, lysates incubated as long as 10 min before assay) is listed as “no loss in its activity”. Further, in the experiment on platelets [1] (Quin-2-loaded and activated cells), the “Rearrangements of gelsolin on activation (immunoelectron microscopy)” value is recorded as “did not occur”. In the experiment with platelets [1] (setting [3]), the Filopodia length is 2-5 um and the “Morphology after glass activation” value is recorded as “extend filopodia but not lamellipodia”.

`C[C@@H]1NC(=O)[C@H](C[C@@](C)(O)CO)NC(=O)[C@@H]2Cc3c([nH]c4ccccc34)SC[C@H](NC(=O)[C@@H]([C@H](C)O)NC1=O)C(=O)N1C[C@@H](O)C[C@H]1C(=O)N[C@@H](C)C(=O)N2` [phalloidin] (cyclo(A[dT]C[cisHyp]A[Trp(2-yl)][Leu(4R-OH,5-OH)]); thioether 3-6): in the experiment on platelets [2] (0.1 uM phalloidin in lysates, Quin-2-loaded, thrombin-activated), the “Effect on nucleation activity in lysates from Quin-2-loaded cells” value is on record as “no effect”.
